Two molecules from publication PMC5896373 (Molecular Pharmacology, 2018) can be followed below.

Substitutions are numbered along the chain they refer to. pIC50: −log10 of the molar value.

In experiment [1] the target is T1, chimeric P2X7/1 receptor 105–114 (Homo sapiens, UniProt Q99572, E112P/G113K/I21V/K110V/L109I/M24R/N16P/N25R/Q22R/R20V/S23N/T19I/Y26L).
T1 construct: expressed in transfected cells; host or cells: Xenopus laevis oocytes (cRNA injection)
T1 sequence (Q99572 1-595 N16P/T19I/R20V/I21V/Q22R/S23N/M24R/N25R/Y26L/L109I/K110V/E112P/G113K): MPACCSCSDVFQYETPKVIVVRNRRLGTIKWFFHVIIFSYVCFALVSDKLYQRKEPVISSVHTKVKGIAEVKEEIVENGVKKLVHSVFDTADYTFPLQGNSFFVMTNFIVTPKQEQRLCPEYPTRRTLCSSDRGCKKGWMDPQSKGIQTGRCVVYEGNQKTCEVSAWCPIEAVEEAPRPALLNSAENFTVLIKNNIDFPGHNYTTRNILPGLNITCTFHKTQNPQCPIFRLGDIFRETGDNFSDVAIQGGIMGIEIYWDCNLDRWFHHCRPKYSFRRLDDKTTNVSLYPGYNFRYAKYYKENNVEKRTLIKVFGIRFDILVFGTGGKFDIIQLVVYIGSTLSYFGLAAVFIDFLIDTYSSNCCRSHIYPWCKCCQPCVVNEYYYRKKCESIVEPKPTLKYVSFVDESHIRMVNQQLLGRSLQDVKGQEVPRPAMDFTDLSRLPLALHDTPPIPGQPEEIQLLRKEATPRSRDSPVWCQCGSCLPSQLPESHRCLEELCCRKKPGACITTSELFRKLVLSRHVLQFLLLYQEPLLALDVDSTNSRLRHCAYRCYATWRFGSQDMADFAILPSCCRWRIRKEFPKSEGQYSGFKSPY
In words: Two-electrode voltage clamp of ATP-evoked currents in Xenopus oocytes. Format: cell-based.
Protocol: (§1) Additional point mutants were made using the QuikChange mutagenesis kit (Stratagene California, La Jolla, CA). The production of the correct mutations and absence of coding errors was determined by DNA sequencing (Automated ABI Sequencing Service, University of Leicester, UK). cRNA was generated for the mutants and 50 nl (50 ng) was injected into manually defoliculated stage V Xenopus laevis oocytes using an Inject+Matic microinjector (J.A. Gabay, Inject+Matic, Geneva, Switzerland). Injected oocytes were stored at 16°C in ND96 buffer [in millimolar concentrations, NaCl 96, KCl 2, CaCl2 1.8, MgCl2 1, sodium pyruvate 5, and HEPES 5 (pH 7.6) supplemented with 50 μg/ml gentamycin and 50 μg/ml tetracycline]. Three to seven days postinjection two-electrode voltage clamp recordings were made from oocytes bathed in divalent-free ND96 buffer (in millimolar concentrations, NaCl 96, KCl 2, sodium pyruvate 5, HEPES 5, and 0.1 flufenamic acid, pH 7.6). Oocytes were voltage clamped at a holding potential of −60 mV with a GeneClamp500B amplifier (Molecular Devices).
(§2) Inhibition by the antagonists was expressed as the percentage of the peak current amplitude of an EC90 concentration of ATP recorded before the application of antagonist (ATP gave reproducible responses to ATP in the absence of antagonist). Inhibition curves were fitted with the Hill equation (variable slope) using GraphPad Prism 6 (GraphPad Software, San Diego, CA). […] Individual concentration-response curves were generated for individual experiments, and statistical analysis was carried out on the data generated. […] Data are shown as mean ± S.E.M. In all cases n ≥ 3 for all data points.

For experiment [2], the target named is T2, chimeric P2X7/1 receptor 170–177 (Homo sapiens, UniProt Q99572, A172V/A176I/E174D/E175D/I170V/I21V/M24R/N16P/N25R/Q22R/R20V/S23N/T19I/V173D/Y26L).
T2 construct: expressed in transfected cells; host or cells: Xenopus laevis oocytes (cRNA injection)
T2 sequence (Q99572 1-595 N16P/T19I/R20V/I21V/Q22R/S23N/M24R/N25R/Y26L/I170V/A172V/V173D/E174D/E175D/A176I): T1 sequence (Q99572 1-595 N16P/T19I/R20V/I21V/Q22R/S23N/M24R/N25R/Y26L/L109I/K110V/E112P/G113K) with I109L, V110K, P112E, K113G, I170V, A172V, V173D, E174D, E175D, A176I
The experiment is described as above. Format: cell-based.
Protocol: as §1, §2

Experiment [3] concerns the target T3, chimeric P2X7/1 receptor 295–310 (Homo sapiens, UniProt Q99572, E305N/I21V/I310F/K297R/K300V/K306Y/M24R/N16P/N25R/N303G/Q22R/R20V/S23N/T19I/T308H/V304T/Y26L/Y295F/Y298H/Y299F).
T3 construct: expressed in transfected cells; host or cells: Xenopus laevis oocytes (cRNA injection)
In words: cell-based. Format: cell-based.
Protocol: as §1, §2

For the next experiment, the target named is T4, P2X7R point mutant T94V (Homo sapiens, UniProt Q99572, I21V/M24R/N16P/N25R/Q22R/R20V/S23N/T19I/T94V/Y26L).
T4 construct: expressed in transfected cells; host or cells: Xenopus laevis oocytes (cRNA injection)
Briefly: Two-electrode voltage clamp of ATP-evoked currents in Xenopus oocytes. Format: cell-based. The settings on record: EC90 ATP, mean ± S.E.M. On the technique in general: Two-electrode voltage clamp is typically applied to oocytes expressing channels or transporters.

A further experiment addresses T5, P2X7R point mutant Y298A (Homo sapiens, UniProt Q99572, I21V/M24R/N16P/N25R/Q22R/R20V/S23N/T19I/Y26L/Y298A).
T5 construct: expressed in transfected cells; host or cells: Xenopus laevis oocytes (cRNA injection)
Briefly: cell-based.

The target of a further experiment is T6, P2X7R point mutant E305A (Homo sapiens, UniProt Q99572, E305A/I21V/M24R/N16P/N25R/Q22R/R20V/S23N/T19I/Y26L).
T6 construct: expressed in transfected cells; host or cells: Xenopus laevis oocytes (cRNA injection)
In words: Two-electrode voltage clamp of ATP-evoked currents in Xenopus oocytes. The settings on record: EC90 ATP, mean ± S.E.M. Format: cell-based.

A further experiment deals with T7, P2X7R point mutant T308A (Homo sapiens, UniProt Q99572, I21V/M24R/N16P/N25R/Q22R/R20V/S23N/T19I/T308A/Y26L).
T7 construct: expressed in transfected cells; host or cells: Xenopus laevis oocytes (cRNA injection)
The description is as above. Format: cell-based. The conditions noted are these: EC90 ATP, mean ± S.E.M.

For a further experiment, the target named is T8, P2X7R point mutant I310A (Homo sapiens, UniProt Q99572, I21V/I310A/M24R/N16P/N25R/Q22R/R20V/S23N/T19I/Y26L).
T8 construct: expressed in transfected cells; host or cells: Xenopus laevis oocytes (cRNA injection)
The description is as above. Format: cell-based. The settings on record: EC90 ATP, mean ± S.E.M.

The next experiment has as its target T9, P2X7R point mutant Y295A (Homo sapiens, UniProt Q99572, I21V/M24R/N16P/N25R/Q22R/R20V/S23N/T19I/Y26L/Y295A).
T9 construct: expressed in transfected cells; host or cells: Xenopus laevis oocytes (cRNA injection)
The experiment is described as above. Format: cell-based. The conditions noted are these: EC90 ATP, mean ± S.E.M.

A further experiment deals with T10, P2X7R point mutant L83A (Homo sapiens, UniProt Q99572, I21V/L83A/M24R/N16P/N25R/Q22R/R20V/S23N/T19I/Y26L).
T10 construct: expressed in transfected cells; host or cells: Xenopus laevis oocytes (cRNA injection)
Described as above. The settings on record: EC90 ATP, mean ± S.E.M. Format: cell-based.

For the next experiment, the target named is T11, P2X7R point mutant Q116A (Homo sapiens, UniProt Q99572, I21V/M24R/N16P/N25R/Q116A/Q22R/R20V/S23N/T19I/Y26L).
T11 construct: expressed in transfected cells; host or cells: Xenopus laevis oocytes (cRNA injection)
Described as above. Format: cell-based. The conditions noted are these: EC90 ATP, mean ± S.E.M.

T11 sequence (Q99572 whole entry N16P/T19I/R20V/I21V/Q22R/S23N/M24R/N25R/Y26L/Q116A): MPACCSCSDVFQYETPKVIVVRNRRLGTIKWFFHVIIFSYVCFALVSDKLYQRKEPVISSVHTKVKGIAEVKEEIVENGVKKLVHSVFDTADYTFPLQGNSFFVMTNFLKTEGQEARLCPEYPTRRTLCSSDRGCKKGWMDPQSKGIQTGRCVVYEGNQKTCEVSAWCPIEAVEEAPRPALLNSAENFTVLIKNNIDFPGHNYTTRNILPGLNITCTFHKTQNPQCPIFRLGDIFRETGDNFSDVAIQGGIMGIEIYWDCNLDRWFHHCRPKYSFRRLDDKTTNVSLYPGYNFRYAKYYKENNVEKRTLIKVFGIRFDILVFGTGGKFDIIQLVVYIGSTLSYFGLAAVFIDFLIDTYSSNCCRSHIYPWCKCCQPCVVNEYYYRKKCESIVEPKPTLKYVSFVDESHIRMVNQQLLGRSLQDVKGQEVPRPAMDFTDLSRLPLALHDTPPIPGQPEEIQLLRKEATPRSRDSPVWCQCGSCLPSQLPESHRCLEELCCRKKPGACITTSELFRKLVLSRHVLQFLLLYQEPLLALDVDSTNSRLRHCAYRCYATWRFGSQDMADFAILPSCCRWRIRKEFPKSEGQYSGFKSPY
T8 sequence (Q99572 whole entry N16P/T19I/R20V/I21V/Q22R/S23N/M24R/N25R/Y26L/I310A): as the sequence (Q99572 whole entry N16P/T19I/R20V/I21V/Q22R/S23N/M24R/N25R/Y26L/Q116A) above, with A116Q, I310A counted along it
T7 sequence (Q99572 whole entry N16P/T19I/R20V/I21V/Q22R/S23N/M24R/N25R/Y26L/T308A): as the sequence (Q99572 whole entry N16P/T19I/R20V/I21V/Q22R/S23N/M24R/N25R/Y26L/Q116A) above, with A116Q, T308A counted along it
T10 sequence (Q99572 whole entry N16P/T19I/R20V/I21V/Q22R/S23N/M24R/N25R/Y26L/L83A): as the sequence (Q99572 whole entry N16P/T19I/R20V/I21V/Q22R/S23N/M24R/N25R/Y26L/Q116A) above, with L83A, A116Q counted along it
T9 sequence (Q99572 whole entry N16P/T19I/R20V/I21V/Q22R/S23N/M24R/N25R/Y26L/Y295A): as the sequence (Q99572 whole entry N16P/T19I/R20V/I21V/Q22R/S23N/M24R/N25R/Y26L/Q116A) above, with A116Q, Y295A counted along it
T4 sequence (Q99572 whole entry N16P/T19I/R20V/I21V/Q22R/S23N/M24R/N25R/Y26L/T94V): as the sequence (Q99572 whole entry N16P/T19I/R20V/I21V/Q22R/S23N/M24R/N25R/Y26L/Q116A) above, with T94V, A116Q counted along it
T3 sequence (Q99572 1-595 with the stated changes): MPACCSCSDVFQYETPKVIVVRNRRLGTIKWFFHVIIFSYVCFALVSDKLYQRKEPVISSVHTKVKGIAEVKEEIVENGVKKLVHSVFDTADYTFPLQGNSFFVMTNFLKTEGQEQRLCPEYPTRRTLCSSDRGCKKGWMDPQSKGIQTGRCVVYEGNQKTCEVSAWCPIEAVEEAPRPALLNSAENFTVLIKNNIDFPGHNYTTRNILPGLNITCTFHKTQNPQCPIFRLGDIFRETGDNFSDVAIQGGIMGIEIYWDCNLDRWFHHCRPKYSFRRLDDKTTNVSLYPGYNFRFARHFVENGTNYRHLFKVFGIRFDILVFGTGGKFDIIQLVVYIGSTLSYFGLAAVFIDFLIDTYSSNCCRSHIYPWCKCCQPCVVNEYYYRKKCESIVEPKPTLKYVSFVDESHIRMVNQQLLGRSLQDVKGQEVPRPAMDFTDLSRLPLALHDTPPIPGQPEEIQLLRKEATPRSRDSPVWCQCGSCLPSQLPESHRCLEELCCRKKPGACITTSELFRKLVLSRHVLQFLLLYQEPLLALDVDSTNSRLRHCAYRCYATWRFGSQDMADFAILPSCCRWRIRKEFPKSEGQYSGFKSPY
T5 sequence (Q99572 whole entry N16P/T19I/R20V/I21V/Q22R/S23N/M24R/N25R/Y26L/Y298A): as the sequence (Q99572 whole entry N16P/T19I/R20V/I21V/Q22R/S23N/M24R/N25R/Y26L/Q116A) above, with A116Q, Y298A counted along it
T6 sequence (Q99572 whole entry N16P/T19I/R20V/I21V/Q22R/S23N/M24R/N25R/Y26L/E305A): as the sequence (Q99572 whole entry N16P/T19I/R20V/I21V/Q22R/S23N/M24R/N25R/Y26L/Q116A) above, with A116Q, E305A counted along it
Protocol for P2X7R point mutant E305A: (§3) Injected oocytes were stored at 16°C in ND96 buffer [in millimolar concentrations, NaCl 96, KCl 2, CaCl2 1.8, MgCl2 1, sodium pyruvate 5, and HEPES 5 (pH 7.6) supplemented with 50 μg/ml gentamycin and 50 μg/ml tetracycline]. Three to seven days postinjection two-electrode voltage clamp recordings were made from oocytes bathed in divalent-free ND96 buffer (in millimolar concentrations, NaCl 96, KCl 2, sodium pyruvate 5, HEPES 5, and 0.1 flufenamic acid, pH 7.6). Oocytes were voltage clamped at a holding potential of −60 mV with a GeneClamp500B amplifier (Molecular Devices).
as §2
Protocol for P2X7R point mutant I310A: as §3, §2
Protocol for P2X7R point mutant L83A: as §3, §2
Protocol for P2X7R point mutant Q116A: as §3, §2
Protocol for P2X7R point mutant T308A: as §3, §2
Protocol for P2X7R point mutant T94V: as §1
(§4) Inhibition by the antagonists was expressed as the percentage of the peak current amplitude of an EC90 concentration of ATP recorded before the application of antagonist (ATP gave reproducible responses to ATP in the absence of antagonist). […]
Protocol for P2X7R point mutant Y295A: as §1, §4
Protocol for P2X7R point mutant Y298A: as §3
Inhibition by the antagonists was expressed as the percentage of the peak current amplitude of an EC90 concentration of ATP recorded before the application of antagonist (ATP gave reproducible responses to ATP in the absence of antagonist). Inhibition curves were fitted with the Hill equation (variable slope) using GraphPad Prism 6 (GraphPad Software, San Diego, CA). […] Individual concentration-response curves were generated for individual experiments, and statistical analysis was carried out on the data generated. When shown in figures, the inhibition curves are fitted to the mean normalized data. […] Data are shown as mean ± S.E.M. In all cases n ≥ 3 for all data points.

`Cl.Clc1cccc(-c2nnnn2Cc2cccnc2)c1Cl.O` [A438079, 3-(5-(2,3-dichlorophenyl)-1H-tetrazol-1-yl)methyl pyridine hydrochloride hydrate]: the negative-log IC50 (pIC50) (commonly the negative decadic logarithm of the IC50, by convention in mol/L) in experiment [1] is 6.30; in experiment [2], 6.20; in experiment [3] it was 5.00; at P2X7R point mutant T94V, < 4.00; against P2X7R point mutant Y298A, 5.20; against P2X7R point mutant E305A, 6.70. For the same molecule, the negative-log IC50 (pIC50) against P2X7R point mutant T308A was 6.00; against P2X7R point mutant I310A, 5.20; at P2X7R point mutant Y295A, 5.70; at P2X7R point mutant L83A, 6.10; against P2X7R point mutant Q116A, 5.90.

As to `COc1ccc(CC(=O)NC(N=C(NC#N)Nc2cccc3ncccc23)C(C)(C)C)cc1OC` (stereo not drawn) [A740003, N-[1-[[(cyanoamino)(5-quinolinylamino)methylene]amino]-2,2-dimethylpropyl]-3,4-dimethoxybenzeneacetamide], the pIC50 in [1] is 7.00; in experiment [2], 7.20; in experiment [3], 6.30; on P2X7R point mutant T94V, 6.40; against P2X7R point mutant Y298A, 5.70; against P2X7R point mutant E305A, 7.60. The pIC50 is 7.00 against P2X7R point mutant T308A; 6.90 against P2X7R point mutant I310A; 6.80 against P2X7R point mutant Y295A; 6.50 on P2X7R point mutant L83A; 6.50 at P2X7R point mutant Q116A. In addition, the “effect on antagonist potency relative to P2X7-2Nβ” value in [1] (chimera 105–114) and in experiment [2] (chimera 170–177) was “no effect” throughout.
